Usually IC50 stands for the midpoint of a concentration-inhibition curve.

Here are results for 24 compounds from US20090099195A1 (ASTRAZENECA AB, priority 2007, published 2009).

Test [1] addresses T1, hP2X3 (human Purinergic P2X receptors subtype 3), clone A (Homo sapiens, UniProt P56373).
T1 sequence (P56373 1-397): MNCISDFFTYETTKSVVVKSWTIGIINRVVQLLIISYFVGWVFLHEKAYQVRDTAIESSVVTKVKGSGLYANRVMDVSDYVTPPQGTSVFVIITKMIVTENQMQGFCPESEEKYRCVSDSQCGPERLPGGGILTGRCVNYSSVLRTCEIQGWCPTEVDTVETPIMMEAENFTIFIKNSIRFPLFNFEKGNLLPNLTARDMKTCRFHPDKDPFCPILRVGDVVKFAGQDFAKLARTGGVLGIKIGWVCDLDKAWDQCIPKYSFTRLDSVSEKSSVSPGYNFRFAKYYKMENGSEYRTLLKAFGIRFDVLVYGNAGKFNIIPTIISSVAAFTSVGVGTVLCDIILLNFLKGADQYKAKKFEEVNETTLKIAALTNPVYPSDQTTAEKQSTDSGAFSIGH
As to the kind of experiment: hP2X3 FLIPR calcium (Fluo-4) antagonist assay, clone A. The conditions noted are these: Human P2X3 FLIPR Clone A Mean IC50 (nM), RLE cells expressing hP2X3 clone A (AB016608); agonist 500 nM α,β-methylene-ATP.
Method: (§1) The assay used a calcium indicator dye (Fluo-4) that emits fluorescence, the intensity of which is related to the concentration of calcium that entered the cell when P2X3 was activated and the channel opened. Activation of hP2X3 or rat P2X3 and rat P2X2/3 (from the coexpression of rat P2X3 and rat P2×2) is elicited the by P2X3 agonist α,β methylene-ATP (Sigma M6517), and the resulting fluorescence is measured with a FLIPR II™ instrument (Molecular Devices). Compounds are tested for their ability to inhibit the agonist-induced fluorescent signal.
(§2) For the rat P2X2/3 HEK-TREX cells, induction of the rat P2X3 expression is used to generate the rat P2X2/3 channels in HEK-TREX cells and performed by addition of 1 μg/mL tetracycline (Invitrogen) 24 h prior to compounds testing to the HEK-TREX expressing the rat P2X2 constitutively. On the day of the experiment, the cells and test compounds are prepared as follows. […] After preparing the compounds, the medium is removed from the cell plates by inversion. A loading solution of 30 μL assay buffer containing 4 μM of the calcium indicator dye FLUO-4 AM (Molecular Probes F14202) is added to each well using a Multidrop (Labsystems). […] The incubation is terminated by washing the cells four times in assay buffer using a Skatron Embla (Molecular Devices), and 25 μL of assay buffer was left in each well. Cell plates are then transferred to the FLIPR. Experiments are initiated by measuring a baseline fluorescence reading for 10 seconds, followed by the addition of 12.5 μL of cpds and data sampling for a total 280 seconds. The experiments are terminated by addition of 12.5 μL of a reference agonist (500 nM α,β-methylene-ATP) or buffer, producing a final assay volume of 50 μL followed by data sampling for an additional 280 seconds.
(§3) In P2X3 antagonist experiments (human and rat assays) data are analysed as normalised maximal peak fluorescence monitored following agonist addition and calculated as percent of relative fluorescent counts from control agonist. The dose-response antagonist inhibition curves are analyzed in a 4-parameter sigmoidal fit using a non-linear curve-fitting program (XLfit version 5.0.6, ID Business Solutions Limited, Guildford, UK).

Test [2] concerns the target T2, hP2X3 (human Purinergic P2X receptors subtype 3), clone B (Homo sapiens, UniProt P56373).
T2 sequence (P56373 1-397): T1 sequence (P56373 1-397)
The test can be described thus: hP2X3 FLIPR calcium (Fluo-4) antagonist assay, clone B. As to conditions: Human P2X3 FLIPR Clone B IC50 (nM), RLE cells expressing hP2X3 clone B (NM_002559); agonist 500 nM α,β-methylene-ATP.
Method: as §1, §2, §3

In the case of `CC(=O)N1CCN(c2nc(N[C@H](C)c3cc(C(F)(F)F)ccc3F)c3c(n2)C(=O)N(C(C)C)C3)CC1` [Example 183, (R)-2-(4-acetylpiperazin-1-yl)-4-(1-(2-fluoro-5-(trifluoromethyl)phenyl)ethylamino)-6-isopropyl-5H-pyrrolo[3,4-d]pyrimidin-7(6H)-one], the IC50 was found to be 199 nM in test [1] and 170 nM in test [2].

In the case of `CC(=O)N1CCN(c2nc(NCc3cc4ccccc4c(C)n3)c3c(n2)C(=O)N(C(C)C)C3)CC1` [Example 259, 2-(4-acetylpiperazin-1-yl)-6-isopropyl-4-((1-methylisoquinolin-3-yl)methylamino)-5H-pyrrolo[3,4-d]pyrimidin-7(6H)-one], the IC50 in test [1] is 27.2 nM; in test [2], 16 nM. The matching figures for `CC(=O)N1CCN(c2nc3c(c(N4CCCC4c4ccc(Cl)c(Cl)c4)n2)CN(C(C)C)C3=O)CC1` (stereo not drawn) [Example 297, 2-(4-acetylpiperazin-1-yl)-4-[2-(3,4-dichlorophenyl)pyrrolidin-1-yl]-6-(1-methylethyl)-5,6-dihydro-7H-pyrrolo[3,4-d]pyrimidin-7-one]: 322 nM and 300 nM. Consider `CCC(C)N1Cc2c(nc(N3CCN(C(C)=O)CC3)nc2N(CC)Cc2cc3ccccc3cn2)C1=O` (single isomer, unassigned) [Example 317, 2-(4-acetylpiperazin-1-yl)-4-[ethyl(isoquinolin-3-ylmethyl)amino]-6-(1-methylpropyl)-5,6-dihydro-7H-pyrrolo[3,4-d]pyrimidin-7-one], for which the IC50 in test [1] is 40 nM; in test [2], 32 nM. Take `CCOc1ccc([C@@H](C)Nc2nc(N3CCN(C(C)=O)CC3)nc3c2CN([C@@H](C)CC)C3=O)cc1F` [Example 320, 2-(4-acetylpiperazin-1-yl)-4-{[(1R)-1-(4-ethoxy-3-fluorophenyl)ethyl]amino}-6-[(1S)-1-methylpropyl]-5,6-dihydro-7H-pyrrolo[3,4-d]pyrimidin-7-one]: the IC50 in test [1] is 69.1 nM; in test [2], 54 nM. Take `CC(=O)N1CCN(c2nc3c(c(N(C)C(C)c4ccc5ncccc5c4)n2)CN(C(C)C)C3=O)CC1` (single isomer, unassigned) [Example 260, 2-(4-acetylpiperazin-1-yl)-6-isopropyl-4-(methyl(1-(quinolin-6-yl)ethyl)amino)-5H-pyrrolo[3,4-d]pyrimidin-7(6H)-one]: the IC50 in test [1] amounted to 1900 nM; in test [2] it was 2300 nM. Taken in the same sequence, the figures for `CCOc1ccc([C@@H](C)N(C)c2nc(N3CCN(C(C)=O)CC3)nc3c2CN(C(C)C)C3=O)cc1F` [Example 262, (R)-2-(4-acetylpiperazin-1-yl)-4-((1-(4-ethoxy-3-fluorophenyl)ethyl)(methyl)amino)-6-isopropyl-5H-pyrrolo[3,4-d]pyrimidin-7(6H)-one] were 84.5 nM and 85 nM. Turning to `CC(=O)N1CCN(c2nc3c(c(N4CCCC4c4ccc(C)cc4)n2)CN(C(C)C)C3=O)CC1` (stereo not drawn) [Example 296, 2-(4-acetylpiperazin-1-yl)-6-(1-methylethyl)-4-[2-(4-methylphenyl)pyrrolidin-1-yl]-5,6-dihydro-7H-pyrrolo[3,4-d]pyrimidin-7-one], the values for the IC50 in test [1] and in test [2] were 1190 nM and 1400 nM, respectively.

For `CC(=O)N1CCN(c2nc(N[C@H](C)c3ccc(F)c(C(F)(F)F)c3)c3c(n2)C(=O)N(C(C)C)C3)CC1` [Example 188, (R)-2-(4-acetylpiperazin-1-yl)-4-(1-(4-fluoro-3-(trifluoromethyl)phenyl)ethylamino)-6-isopropyl-5H-pyrrolo[3,4-d]pyrimidin-7(6H)-one], the IC50 in test [1] turned out to be 174 nM; in test [2], 140 nM.

For `CCOc1ccc([C@@H](C)Nc2nc(N3CCN(C(C)=O)CC3)nc3c2CN(C(C)C)C3=O)c(F)c1` [Example 204, (R)-2-(4-acetylpiperazin-1-yl)-4-(1-(4-ethoxy-2-fluorophenyl)ethylamino)-6-isopropyl-5H-pyrrolo[3,4-d]pyrimidin-7(6H)-one], the IC50 in test [1] was found to be 50.4 nM; in test [2] it was 38 nM. For the compound `CCOc1ccc([C@@H](C)Nc2nc(N3CCN(C)C(=O)C3)nc3c2CN(C(C)C)C3=O)cc1F` [Example 201, (R)-4-(1-(4-ethoxy-3-fluorophenyl)ethylamino)-6-isopropyl-2-(4-methyl-3-oxopiperazin-1-yl)-5H-pyrrolo[3,4-d]pyrimidin-7(6H)-one], the results for the IC50 in test [1] and in test [2] were 723 nM and 410 nM, respectively. Turning to `CC(=O)N1CCN(c2nc3c(c(N(C)C(C)c4ccc5ncccc5c4)n2)CN(C(C)C)C3=O)CC1` (single isomer, unassigned) [Example 261, 2-(4-acetylpiperazin-1-yl)-6-isopropyl-4-(methyl(1-(quinolin-6-yl)ethyl)amino)-5H-pyrrolo[3,4-d]pyrimidin-7(6H)-one], the IC50 worked out at 71.1 nM in test [1] and 64 nM in test [2]. Regarding `CC(=O)c1ccc(CC2CCCN2c2nc(N3CCN(C(C)=O)CC3)nc3c2CN(C(C)C)C3=O)cc1` (stereo not drawn) [Example 294, 4-[2-(4-acetylbenzyl)pyrrolidin-1-yl]-2-(4-acetylpiperazin-1-yl)-6-(1-methylethyl)-5,6-dihydro-7H-pyrrolo[3,4-d]pyrimidin-7-one], the IC50 in test [1] was 1840 nM; in test [2], 980 nM. Consider `CC(=O)N1CCN(c2nc3c(c(N(C)Cc4cc5ccccc5c(C)n4)n2)CN(C(C)C)C3=O)CC1` [Example 263, 2-(4-acetylpiperazin-1-yl)-6-isopropyl-4-(methyl((1-methylisoquinolin-3-yl)methyl)amino)-5H-pyrrolo[3,4-d]pyrimidin-7(6H)-one], for which the IC50 in test [1] is 85 nM; in test [2], 94 nM. `COc1cc(OC(C)C)ccc1[C@@H](C)Nc1nc(N2CCN(C(C)=O)CC2)nc2c1CN(C(C)C)C2=O` [Example 203, (R)-2-(4-acetylpiperazin-1-yl)-4-(1-(4-isopropoxy-2-methoxyphenyl)ethylamino)-6-isopropyl-5H-pyrrolo[3,4-d]pyrimidin-7(6H)-one]: the IC50 in test [1] came out at 65.8 nM; in test [2] it was 62 nM. For `CCOc1ncc([C@@H](C)Nc2nc(N3CCN(C(C)=O)CC3)nc3c2CN(C(C)C)C3=O)cc1Cl` [Example 194, (R)-2-(4-acetylpiperazin-1-yl)-4-(1-(5-chloro-6-ethoxypyridin-3-yl)ethylamino)-6-isopropyl-5H-pyrrolo[3,4-d]pyrimidin-7(6H)-one], the IC50 in test [1] was determined as 283 nM. The same measure, in the same setting: for `CCOc1ccc([C@H]2CCCN2c2nc(N3CCN(C(C)=O)CC3)nc3c2CN(C(C)C)C3=O)cc1F` [Example 300, 2-(4-acetylpiperazin-1-yl)-4-[(2R)-2-(4-ethoxy-3-fluorophenyl)pyrrolidin-1-yl]-6-(1-methylethyl)-5,6-dihydro-7H-pyrrolo[3,4-d]pyrimidin-7-one] the value was 192 nM. As for `CC(=O)N1CCN(c2nc(NCc3ccc4c(c3)CC(C)O4)c3c(n2)C(=O)N(C(C)C)C3)CC1` (stereo not drawn) [Example 323, 2-(4-acetylpiperazin-1-yl)-6-isopropyl-4-((2-methyl-2,3-dihydrobenzofuran-5-yl)methylamino)-5H-pyrrolo[3,4-d]pyrimidin-7(6H)-one], the IC50 in test [1] was found to be 410 nM. Same read-out and setting: in the case of `COc1cc(OC(C)C)ccc1CNc1nc(N2CCN(C(C)=O)CC2)nc2c1CN(C(C)C)C2=O` [Example 337, 2-(4-acetylpiperazin-1-yl)-4-(4-isopropoxy-2-methoxybenzylamino)-6-isopropyl-5H-pyrrolo[3,4-d]pyrimidin-7(6H)-one] it was 79.5 nM; in that of `COc1ccc(C2CCCN2c2nc(N3CCN(C(C)=O)CC3)nc3c2CN(C(C)C)C3=O)cc1` (stereo not drawn) [Example 299, 2-(4-acetylpiperazin-1-yl)-4-[2-(4-methoxyphenyl)pyrrolidin-1-yl]-6-(1-methylethyl)-5,6-dihydro-7H-pyrrolo[3,4-d]pyrimidin-7-one], 1140 nM. On to `CC(=O)N1CCN(c2nc(N[C@H](C)c3ccc4c(c3)OC(F)(F)O4)c3c(n2)C(=O)N(C(C)C)C3)CC1` [Example 359, (R)-2-(4-acetylpiperazin-1-yl)-4-(1-(2,2-difluorobenzo[d][1,3]dioxol-5-yl)ethylamino)-6-isopropyl-5H-pyrrolo[3,4-d]pyrimidin-7(6H)-one], for which, in test [1], the IC50 was 511 nM. Consider `CC(=O)N1CCN(c2nc(NC(C)c3ccc4c(c3)CC(C)O4)c3c(n2)C(=O)N(C(C)C)C3)CC1` (stereo not drawn) [Example 324, 2-(4-acetylpiperazin-1-yl)-6-isopropyl-4-(1-(2-methyl-2,3-dihydrobenzofuran-5-yl)ethylamino)-5H-pyrrolo[3,4-d]pyrimidin-7(6H)-one], for which the IC50 in test [1] was found to be 179 nM.

For the compound `CCCOc1ccc([C@@H](C)Nc2nc(N3CCN(C(C)=O)CC3)nc3c2CN(C(C)C)C3=O)cc1F` [Example 193, (R)-2-(4-acetylpiperazin-1-yl)-4-(1-(3-fluoro-4-propoxyphenyl)ethylamino)-6-isopropyl-5H-pyrrolo[3,4-d]pyrimidin-7(6H)-one], the IC50 in test [1] is 235 nM. `CC(=O)N1CCN(c2nc3c(c(N(C)Cc4cc5cc(F)ccc5cn4)n2)CN(C(C)C)C3=O)CC1` [Example 349, 2-(4-acetylpiperazin-1-yl)-4-(((6-fluoroisoquinolin-3-yl)methyl)(methyl)amino)-6-isopropyl-5H-pyrrolo[3,4-d]pyrimidin-7(6H)-one]: the IC50 in test [1] came out at 1050 nM.
